From patent US3992540A, “3-Quinoline-substituted 4-oxy-carboxamides” (Roussel-UCLAF, priority 1974, dated 1976)

Assays:
[1] = test system: stretchings provoked by intraperitoneal injection of acetic acid to mice; assay: Analgesic activity, acetic acid stretching (writhing) test in mice (Koster et al); format: in vivo; settings: Mus musculus, oral, 30 minutes before acetic acid injection (100 mg/kg i.p.), stretchings totaled over 15 minutes, read-out: DA50, dose which reduced by 50% the number of stretchings as compared to the controls
Protocol: The test was based on that of Koster et al [Fed. Proc., Vol. 18 (1959), p. 412] in which the intraperitoneal injection of acetic acid to mice provokes repeated stretching and twisting movements which persist for more than 6 hours. Analgesics prevent or suspress these syndromes which are considered to be an exteriorization of a diffuse abdominal pain. A 1% solution of acetic acid in water was used at a dose of 0.01 ml/g or 100 mg/kg of acetic acid to release the syndrome.
The test product was orally administered 30 minutes before the acetic acid injection and the mice were fasted for 24 hours before the start of the test. The stretchings for the mice were observed and totaled for each mouse in a 15 minutes observation period starting just after the acetic acid injection. The results were expressed as DA50, that dose which reduced by 50% the number of stretchings as compared to the controls and the DA50 for N-[2-thiazolyl]-4-hydroxy-8 -trifluoromethyl-3-quinoline-carboxamide was 5 mg/kg; for N-[2 -thiazolyl]-4-hydroxy-8-chloro-3-quinoline-carboxamide was 4 mg/kg; and for N-[2-thiazolyl]-4-hydroxy-7-trifluoromethyl- 3-quinoline-carboxamide was 7 mg/kg.

[2] = Acute toxicity in mice, intraperitoneal; settings: mouse, in vivo, ip, observed for a week, graphically determined by Miller et al method, read-out: DL50
Protocol: The acute toxicity was determined on groups of 10 mice weighing between 18-22 g and the test product was administered intraperitoneally in increasing dose in suspensions at 0.25 % in carboxymethyl-cellulose added of Tween 80.

mice = settings: mouse, in vivo, po, 500 mg/kg

Structure (SMILES)	ED50 [1] [mg/kg]	LD50 at 168 h [2] [mg/kg]	tolerance when orally administered (mice)
O=C(Nc1nccs1)c1cnc2cc(C(F)(F)F)ccc2c1O [N-[2-thiazolyl]-4-hydroxy-7-trifluoromethyl-3-quinoline-carboxamide]	7		
O=C(Nc1nccs1)c1cnc2c(Cl)cccc2c1O [N-[2-thiazolyl]-4-hydroxy-8-chloro-3-quinoline-carboxamide]	4		
O=C(Nc1nccs1)c1cnc2c(C(F)(F)F)cccc2c1O [N-[2-thiazolyl]-4-hydroxy-8-trifluoromethyl-3-quinoline-carboxamide]	5	225	very well tolerated
